The results in this text go back to patent publication US20160016989A1, “Synthetic Polymers Containing Amino Acid Side Chains” (CHIMEROCHEM LLC, priority 2013, published 2016).

Test [1] deals with Histidine specific antibody (polyclonal IgG ab6442 from ABCAM). Kind of test: Native polyacrylamide gel shift with Histidine specific antibody. As to conditions: native 12% polyacrylamide gel; compared to 20-mer polydT controls. The test is classed as binding. As to the method:
Example using monomer to produce a H-tag. Six His side chain monomers (H) as described in example 1 c2 are added during oligonucleotide synthesis to the 5′ position of a 20mer polydT, such that the final sequence is 5′HHH HHH TTT TTT TTT TTT TTT TTT TT3′. H is used at a concentration of 0.1M in acetonitrile for synthesis. The chimeric polymer is synthesized according to manufacturer's recommendations for the ABI Expedite synthesizer. After deprotection the H-tagged polydT was incubated with Histidine specific antibody (polyclonal IgG ab6442 from ABCAM). A control sample of 20-mer polydT was also incubated with the Histidine specific antibody. A native 12% polyacrylamide (20:1 acrylamide:bis) was loaded with 4 samples: 20-mer polydT, 20-mer polydT+Histidine specific antibody, His-tagged 20-mer polydT, His-tagged 20-mer polydT+Histidine specific antibody.

Test [2] has as its system VMCs from the left anterior descending, circumflex, and right coronary arteries. In words: Calcium signal (fluo 3 fluorescence) and contractility of single coronary artery VMCs. Format: cell-based, rhesus monkeys. As to conditions: images at 1 minute and subsequent time points. From the text: Single VMCs from the left anterior descending, circumflex, and right coronary arteries of adult rhesus monkeys are isolated and studied both as freshly dispersed and as primary cultures. The short-term primary cultured cells (never passaged) maintain the characteristics of the source tissue for 2 to 3 weeks, including contraction, relaxation, receptors, and membrane electrical properties. VMCs are dissociated with collagenase and protease enzymes in a potassium glutamate solution (KG) that prevents loading with Na^+, Ca2^+, or Cl^− and results in a high proportion of viable, contracting cells (Miyagawa et al, Am J Physiol 272:H2645-2654, 1997; Hermsmeyer et, Art Thromb Vasc Biol, 24:955-961, 2004). […]
Freshly dispersed or primary cultured VMCs on glass coverslips are placed in a chamber of laminar flow design on an Axiovert inverted fluorescence microscope and observed with a Zeiss Plan Neofluar 25X/0.80 water immersion objective. Fluorescence intensity is measured with high sensitivity calibrated video sensor and recorded digitally via computer acquisition and management program. […] Fluorescent images are taken at 1 minute and subsequent time points from which light intensity is equated to changes in calcium signal (fluorescence) and cell contractility.

Turning to “5′HHH HHH TTT TTT TTT TTT TTT TTT TT3′ [His-tagged 20-mer polydT]”, the “gel shift on addition of the Histidine specific antibody” value in test [1] is listed as “gel shift”.
On to `NC(=O)CC[C@@H]1NC(=O)[C@H](Cc2ccccc2)NC(=O)[C@H](Cc2ccc(O)cc2)NC(=O)[C@@H](N)CSSC[C@@H](C(=O)N2CCC[C@H]2C(=O)N[C@@H](CCCN=C(N)N)C(=O)NCC(N)=O)NC(=O)[C@H](CC(N)=O)NC1=O` [arginine vasopressin], for which the “calcium signal (fluorescence)” value in test [2] (individual VMC loaded with 3 μM fluo 3) is listed as “affect”. For the same molecule, the cell contractility result in test [2] (individual VMC) is on record as “affect”.
